# Source: PubChem BioAssay (NCI)
#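 In this assay, cells in 96-well plates receive the compound at five concentrations for 48 hours. Endpoints are linearly interpolated between the surrounding concentrations. At the GI50, growth is halved. TGI denotes the concentration required for complete inhibition of growth.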
# Key:
# Assay in all cases: inhibition of tumour cell growth, NCI panel, 48 h
# SR leukemia = system: SR leukemia
# A549 NSCLC = system: A549 NSCLC
# TK-10 renal = system: TK-10 renal
# K-562 leukemia = system: K-562 leukemia
# HCT-116 colon = system: HCT-116 colon
# UACC-257 melanoma = system: UACC-257 melanoma
# HOP-62 NSCLC = system: HOP-62 NSCLC
# HL-60(TB) leukemia = system: HL-60(TB) leukemia
# MCF7 breast = system: MCF7 breast
# HS 578T breast = system: HS 578T breast
# SK-MEL-2 melanoma = system: SK-MEL-2 melanoma
# OVCAR-5 ovarian = system: OVCAR-5 ovarian
# BT-549 breast = system: BT-549 breast
# SK-MEL-5 melanoma = system: SK-MEL-5 melanoma
# U251 CNS = system: U251 CNS
# ACHN renal = system: ACHN renal
# M14 melanoma = system: M14 melanoma
# SF-539 CNS = system: SF-539 CNS
# SF-268 CNS = system: SF-268 CNS
# PC-3 prostate = system: PC-3 prostate
# MDA-MB-231 breast = system: MDA-MB-231 breast
# DU-145 prostate = system: DU-145 prostate
# CAKI-1 renal = system: CAKI-1 renal
# OVCAR-4 ovarian = system: OVCAR-4 ovarian
# NCI-H23 lung = system: NCI-H23 lung
# MDA-MB-435 = system: MDA-MB-435
# UO-31 renal = system: UO-31 renal
# SN12C renal = system: SN12C renal
# RXF 393 renal = system: RXF 393 renal
# MOLT-4 leukemia = system: MOLT-4 leukemia
# MDA-MB-468 breast = system: MDA-MB-468 breast
# IGROV1 ovarian = system: IGROV1 ovarian
# EKVX NSCLC = system: EKVX NSCLC
# CCRF-CEM leukemia = system: CCRF-CEM leukemia
# HT29 colon = system: HT29 colon
# OVCAR-3 ovarian = system: OVCAR-3 ovarian
# UACC-62 melanoma = system: UACC-62 melanoma
# SNB-19 CNS = system: SNB-19 CNS
# NCI-H522 lung = system: NCI-H522 lung
# SF-295 CNS = system: SF-295 CNS
# 786-0 renal = system: 786-0 renal
# MALME-3M melanoma = system: MALME-3M melanoma
# RPMI-8226 leukemia = system: RPMI-8226 leukemia
# SK-OV-3 ovarian = system: SK-OV-3 ovarian
# HCC-2998 colon = system: HCC-2998 colon
# SW-620 colon = system: SW-620 colon
# SK-MEL-28 melanoma = system: SK-MEL-28 melanoma
# OVCAR-8 ovarian = system: OVCAR-8 ovarian
# KM12 colon = system: KM12 colon
# HCT-15 colon = system: HCT-15 colon
# NCI-H460 lung = system: NCI-H460 lung
# T-47D breast = system: T-47D breast
# LOX IMVI melanoma = system: LOX IMVI melanoma
# HOP-92 NSCLC = system: HOP-92 NSCLC
# NCI-H226 lung = system: NCI-H226 lung
# COLO 205 colon = system: COLO 205 colon
# A498 renal = system: A498 renal
compound,measurement,setting,value
Cn1cc(-c2cc3nc(-c4cn(C)c5ncccc45)cc(N)n3n2)c2cc(F)ccc21,GI50,SR leukemia,2.48 µM
same,TGI,SR leukemia,> 100 µM
same,GI50,A549 NSCLC,7.71 µM
same,TGI,A549 NSCLC,> 100 µM
same,GI50,TK-10 renal,10.3 µM
same,TGI,TK-10 renal,31.3 µM
same,GI50,K-562 leukemia,10.5 µM
same,TGI,K-562 leukemia,> 100 µM
same,GI50,HCT-116 colon,> 100 µM
same,TGI,HCT-116 colon,> 100 µM
same,GI50,UACC-257 melanoma,65.6 µM
same,TGI,UACC-257 melanoma,> 100 µM
same,GI50,HOP-62 NSCLC,4.05 µM
same,TGI,HOP-62 NSCLC,16.6 µM
same,GI50,HL-60(TB) leukemia,> 100 µM
same,TGI,HL-60(TB) leukemia,> 100 µM
same,GI50,MCF7 breast,13.4 µM
same,TGI,MCF7 breast,> 100 µM
same,GI50,HS 578T breast,11.3 µM
same,TGI,HS 578T breast,69.6 µM
same,GI50,SK-MEL-2 melanoma,10.4 µM
same,TGI,SK-MEL-2 melanoma,23.3 µM
same,GI50,OVCAR-5 ovarian,25.2 µM
same,TGI,OVCAR-5 ovarian,> 100 µM
same,GI50,BT-549 breast,13.3 µM
same,TGI,BT-549 breast,48 µM
same,GI50,SK-MEL-5 melanoma,46.2 µM
same,TGI,SK-MEL-5 melanoma,> 100 µM
same,GI50,U251 CNS,4.12 µM
same,TGI,U251 CNS,15.4 µM
same,GI50,ACHN renal,4.21 µM
same,TGI,ACHN renal,20.6 µM
same,GI50,M14 melanoma,57 µM
same,TGI,M14 melanoma,> 100 µM
same,GI50,SF-539 CNS,10.6 µM
same,TGI,SF-539 CNS,28.8 µM
same,GI50,SF-268 CNS,15.6 µM
same,TGI,SF-268 CNS,> 100 µM
same,GI50,PC-3 prostate,11 µM
same,TGI,PC-3 prostate,> 100 µM
same,GI50,MDA-MB-231 breast,9.62 µM
same,TGI,MDA-MB-231 breast,26.8 µM
same,GI50,DU-145 prostate,8.97 µM
same,TGI,DU-145 prostate,> 100 µM
same,GI50,CAKI-1 renal,13 µM
same,TGI,CAKI-1 renal,> 100 µM
same,GI50,OVCAR-4 ovarian,4.12 µM
same,TGI,OVCAR-4 ovarian,20.9 µM
same,GI50,NCI-H23 lung,13.7 µM
same,TGI,NCI-H23 lung,58.2 µM
same,GI50,MDA-MB-435,> 100 µM
same,TGI,MDA-MB-435,> 100 µM
same,GI50,UO-31 renal,31.9 µM
same,TGI,UO-31 renal,> 100 µM
same,GI50,SN12C renal,9.61 µM
same,TGI,SN12C renal,> 100 µM
same,GI50,RXF 393 renal,2.61 µM
same,TGI,RXF 393 renal,9.35 µM
same,GI50,MOLT-4 leukemia,20 µM
same,TGI,MOLT-4 leukemia,> 100 µM
same,GI50,MDA-MB-468 breast,3.81 µM
same,TGI,MDA-MB-468 breast,22.1 µM
same,GI50,IGROV1 ovarian,4.45 µM
same,TGI,IGROV1 ovarian,53.1 µM
same,GI50,EKVX NSCLC,19 µM
same,TGI,EKVX NSCLC,> 100 µM
same,GI50,CCRF-CEM leukemia,7.83 µM
same,TGI,CCRF-CEM leukemia,> 100 µM
same,GI50,HT29 colon,4.14 µM
same,TGI,HT29 colon,28.4 µM
same,GI50,OVCAR-3 ovarian,14.1 µM
same,TGI,OVCAR-3 ovarian,57.8 µM
same,GI50,UACC-62 melanoma,20.4 µM
same,TGI,UACC-62 melanoma,> 100 µM
same,GI50,SNB-19 CNS,5.79 µM
same,TGI,SNB-19 CNS,24.3 µM
same,GI50,NCI-H522 lung,10.8 µM
same,TGI,NCI-H522 lung,30.6 µM
same,GI50,SF-295 CNS,3.22 µM
same,TGI,SF-295 CNS,14 µM
same,GI50,786-0 renal,4.82 µM
same,TGI,786-0 renal,19.8 µM
same,GI50,MALME-3M melanoma,10.6 µM
same,TGI,MALME-3M melanoma,37.7 µM
same,GI50,RPMI-8226 leukemia,13.6 µM
same,TGI,RPMI-8226 leukemia,> 100 µM
same,GI50,SK-OV-3 ovarian,14.4 µM
same,TGI,SK-OV-3 ovarian,34.5 µM
same,GI50,HCC-2998 colon,61.2 µM
same,TGI,HCC-2998 colon,> 100 µM
same,GI50,SW-620 colon,52.7 µM
same,TGI,SW-620 colon,> 100 µM
same,GI50,SK-MEL-28 melanoma,> 100 µM
same,TGI,SK-MEL-28 melanoma,> 100 µM
same,GI50,OVCAR-8 ovarian,4.6 µM
same,TGI,OVCAR-8 ovarian,40.5 µM
same,GI50,KM12 colon,> 100 µM
same,TGI,KM12 colon,> 100 µM
same,GI50,HCT-15 colon,> 100 µM
same,TGI,HCT-15 colon,> 100 µM
same,GI50,NCI-H460 lung,5.43 µM
same,TGI,NCI-H460 lung,> 100 µM
same,GI50,T-47D breast,6.15 µM
same,TGI,T-47D breast,67.1 µM
same,GI50,LOX IMVI melanoma,2.43 µM
same,TGI,LOX IMVI melanoma,5.78 µM
same,GI50,HOP-92 NSCLC,11.2 µM
same,TGI,HOP-92 NSCLC,46.7 µM
same,GI50,NCI-H226 lung,4.04 µM
same,TGI,NCI-H226 lung,20.2 µM
same,GI50,COLO 205 colon,6.78 µM
same,TGI,COLO 205 colon,> 100 µM
same,GI50,A498 renal,50 µM
same,TGI,A498 renal,> 100 µM
